From publication PMC10434001, “Glycosylated, Lipid-Binding, CDR-Like Domains of SARS-CoV-2 ORF8 Indicate Unique Sites of Immune Regulation” (Microbiology Spectrum, 2023)

Tests used:
[1] = tested on: deglycosylated ORF8 binding to immune monocytes; assay: Immune cell binding assay: peptide inhibition of deglycosylated ORF8 binding to monocytes; assay type: cell-based; settings: 50 μM peptide with 5 μM FITC-labeled deglycosylated ORF8; human monocytes; 4 h at 37°C; flow cytometry; Fig. 6E and F
[2] = tested on: glycosylated ORF8 binding to immune monocytes; assay: Immune cell binding assay: peptide inhibition of glycosylated ORF8 binding to monocytes; assay type: cell-based; settings: 50 μM peptide with 5 μM FITC-labeled ORF8; human monocytes; 4 h at 37°C; flow cytometry; Fig. 6C and D
[3] = tested on: human immune monocytes (from PBMC); assay: Binding of ORF8 protein forms to immune monocytes (flow cytometry); assay type: cell-based
[4] = after deglycosylation (PNGase F); observation during the experiments

TNERLCVRFE [P3, 10-residue peptide derived from IL17RA (aa89-98) designed against ORF8]
inhibition of deglycosylated ORF8 binding to immune monocytes [1]: significantly inhibited | inhibition of glycosylated ORF8 binding to immune cells [2]: no significant inhibitory effect

deglycosylated ORF8: ORF8 protein treated with PNGase F enzyme overnight
binding to immune cells relative to glycosylated ORF8 ([3]; FITC-labeled ORF8, human monocytes, flow cytometry, Fig. 6A and B): 2 fold

delipidated ORF8: ORF8 protein treated with 0.5% Triton X-100 overnight
binding to human immune cells compared with ORF8 with lipid modifications ([3]; co-incubated with human PBMC cells, lipid removed with 0.5% Triton X-100 overnight, Fig. 4G and H): higher percentage of binding

glycosylated ORF8: recombinant SARS-CoV-2 ORF8 (residues 16–121, MBP/His tag) expressed in 293F cells, glycosylated at N78
solubility of ORF8 [4]: deteriorated | binding to immune cells ([3]; FITC-labeled ORF8, 5 μM, human monocytes, flow cytometry, Fig. 6A and B): weak binding
